Experimental data from patent US8003390B2, “Responses to singlet oxygen” (Wisconsin Alumni Research Foundation, priority 2005, dated 2011).
Read-outs that look alike come from different tables or passages of the source.

Legend:
[1] = system: σ^E-dependent rpoE P1::lacZ reporter (σ^E activity); experiment: Differential rate of β-galactosidase synthesis from the σ^E-dependent rpoE P1::lacZ reporter fusion; assay type: cell-based, Rhodobacter sphaeroides; conditions: for Rate (differential rate of β-galactosidase synthesis from the σ^E-dependent rpoE::lacZ fusion): WT cells, Aero (30% O2)
Experimental: Bacterial strains and plasmids: R. sphaeroides 2.4.1 (wild-type, WT), R. sphaeroides with a mutant ChrR (ΔChrR) (chrR-1::drf; see Newman et al., supra.) or R. sphaeroides with both a mutant σ^E (Δσ^E) and ΔChrR (TF18; rpoEchrR-1::drf, see Schilke B & Donohue T, “ChrR positively regulates transcription of the Rhodobacter sphaeroides cytochrome c2 gene,” J. Bacteriol. 177:1929-1937 (1995), incorporated herein by reference as if set forth in its entirety) were grown at 30° C. in Sistrom's succinate-based minimal medium A. Media used for growth of strains containing low-copy lacZ reporter plasmids was supplemented with 25 μg/ml kanamycin.
Growth conditions: For aerobic respiratory growth, 500 ml of media was bubbled with a mixture of 69% N2, 30% O2 and 1% CO2 in the dark. Conversely, for photosynthetic growth, 500 ml of media was bubbled with a mixture of 95% N2 and 5% CO2 in front of an incandescent light source (10 W/m^2 as measured with a Yellow-Springs-Kettering model 6.5A radiometer through a Corning […] filter).
(§1) To test the effects of ^1O2, photosynthetic cultures were exposed to aerobic growth conditions (69% N2, 30% O2 and 1% CO2) in the presence or in the absence of light (10 W/m^2). Where indicated, light was passed through a 1283 filter (Kopp Glass; Pittsburgh, Pa.) that impedes >99% of light at wavelengths <770 nm, but transmits >45% of light at 830 nm and >80% of light at 900 nm. When using methylene blue (Sigma-Aldrich; St. Louis, Mo.) to generate ^1O2, a final concentration of 1 μM was added to aerobic cultures in the presence or in the absence of incandescent light (10 W/m^2). To test the effects of other ROS, 0.5 mM H2O2, 1 mM diamide or 1 mM paraquat (Sigma-Aldrich) was added to aerobic cultures.
Determining promoter activity: Promoter activity was determined by measuring β-galactosidase activity from a low copy rpoE P1::lacZ reporter plasmid or a trxA::lacZ reporter plasmid. The promoter for the thioredoxin gene (trxA, −214 to +27 relative to the known transcription initiation site) was fused to lacZ and mobilized into R. sphaeroides.
β-galactosidase activity (units/ml of culture) was calculated as follows: (A420×1000)/(Cell volume in assay (ml)×Time of assay (min)). Culture density was typically monitored by measuring A600 in a BioSpec 1601 spectrophotometer (Schimatzu; Columbia, Md.). The density of cultures treated with methylene blue was monitored at 500 nm because methylene blue absorbs light between 609-668 nm. The differential rate of β-galactosidase synthesis was determined by calculating the slope from plots of enzyme activity (units/ml of culture) against optical density. All experiments were repeated a minimum of three times with differential rates of β-galactosidase synthesis typically deviating less than two-fold between experiments.

[2] = system: R. sphaeroides Δσ^E mutant; experiment: Growth and viability of aerobically grown cells treated with methylene blue in the presence of light; assay type: cell-based, Rhodobacter sphaeroides; conditions: methylene blue + light (1O2), FIG. 3
Experimental: as §1
All experiments were initiated when cultures reached ˜2×10^8 cfu/ml to minimize light or O2 limitation to photosynthetic and aerobic cells, respectively. To measure cell viability, samples were removed, diluted and plated in media supplemented with 25 μg/ml kanamycin to select for the rpoE P1::lacZ reporter plasmid. The whole cell abundance of carotenoids was measured as described in Cohen-Bazire G, et al., “Kinetic studies of pigment synthesis by non-sulfur purple bacteria,” J. Cell Physiol. 49:25-68 (1957). […]

[3] = system: trxA::lacZ reporter (trx promoter); assay type: cell-based, Rhodobacter sphaeroides
Experimental: To test the effects of ^1O2, photosynthetic cultures were exposed to aerobic growth conditions (69% N2, 30% O2 and 1% CO2) in the presence or in the absence of light (10 W/m^2). Where indicated, light was passed through a 1283 filter (Kopp Glass; Pittsburgh, Pa.) that impedes >99% of light at wavelengths <770 nm, but transmits >45% of light at 830 nm and >80% of light at 900 nm. When using methylene blue (Sigma-Aldrich; St. Louis, Mo.) to generate ^1O2, a final concentration of 1 μM was added to aerobic cultures in the presence or in the absence of incandescent light (10 W/m^2). […]
Determining promoter activity: Promoter activity was determined by measuring β-galactosidase activity from a low copy rpoE P1::lacZ reporter plasmid or a trxA::lacZ reporter plasmid. […]
β-galactosidase activity (units/ml of culture) was calculated as follows: (A420×1000)/(Cell volume in assay (ml)×Time of assay (min)). Culture density was typically monitored by measuring A600 in a BioSpec 1601 spectrophotometer (Schimatzu; Columbia, Md.). The density of cultures treated with methylene blue was monitored at 500 nm because methylene blue absorbs light between 609-668 nm. The differential rate of β-galactosidase synthesis was determined by calculating the slope from plots of enzyme activity (units/ml of culture) against optical density. […]

[4] = system: σ^E-dependent rpoE P1::lacZ reporter (σ^E activity); conditions: cited from earlier work
[5] = WT cells grown aerobically, 0.5 mM H2O2, 1 mM diamide or 1 mM paraquat, untreated = 11

## CN(C)c1ccc2nc3ccc(=[N+](C)C)cc-3sc2c1 [methylene blue]
[1]; WT aerobic cells, 1 μM methylene blue, light and O2
  Increase of differential rate of β-galactosidase synthesis from rpoE P1::lacZ compared to aerobic cells grown without methylene blue: ~20 fold
[1]; WT aerobic cultures, methylene blue in the dark
  Increase of rate of β-galactosidase synthesis from rpoE P1::lacZ: two-fold
[1]; 1 μM methylene blue + light (generates 1O2)
  Rate (differential rate of β-galactosidase synthesis from the σ^E-dependent rpoE::lacZ fusion): 151
[1]; 1 μM methylene blue, dark (no 1O2)
  Rate (differential rate of β-galactosidase synthesis from the σ^E-dependent rpoE::lacZ fusion): 8
[2]
  Effect on Δσ^E mutant when carotenoids are low (OD500nm, cfu/ml): bacteriocidal

## OO [H2O2, hydrogen peroxide]
[1]
  Change of differential rate of β-galactosidase synthesis from the σ^E-dependent reporter fusion compared to untreated cells: no more than 1.2 fold
  rpoE P1::lacZ fusion (differential rate of β-galactosidase synthesis): 13
[3]
  trxA::lacZ fusion (differential rate of β-galactosidase synthesis): 220

## CN(C)C(=O)/N=N/C(=O)N(C)C [Diamide, diamide]
[1]; [5]
  rpoE P1::lacZ fusion (differential rate of β-galactosidase synthesis): 3
[4]
  σ^E activity upon exposure to the compound (previous work): does not increase

## C[n+]1ccc(-c2cc[n+](C)cc2)cc1 [Paraquat, paraquat]
[1]; [5]
  rpoE P1::lacZ fusion (differential rate of β-galactosidase synthesis): 6
[1]; aerobic WT cells, 0.5 mM H2O2 or 1 mM paraquat
  Change of differential rate of β-galactosidase synthesis from the σ^E-dependent reporter fusion compared to untreated cells: decreased
[3]; WT cells grown aerobically, 0.5 mM H2O2 or 1 mM paraquat, untreated = 185
  trxA::lacZ fusion (differential rate of β-galactosidase synthesis): 450
